Assays:
Assay in all cases: relative viability (nuclei count vs DMSO), 5 days (fraction); higher = more cells survive
HOP-62 = test system: HOP-62
Outline: (§1)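 Relative viability divides the nuclei count in treated wells by that in vehicle wells. Lung cancer cell lines were seeded in 1536-well plates, dosed by pin tool the next day, and fixed and stained after 5 days in one step with final 0.05% Triton X-100, 1% formaldehyde and 1 ug/ml Hoechst. Dosing was a single drug or a fixed anchor-drug dose plus five library-drug doses (not always all listed) in √10 steps, and values are medians of duplicate plates imaged at 4×.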

ChaGo-K-1 = test system: ChaGo-K-1
Outline: as §1

COR-L23 = test system: COR-L23
Outline: as §1

ABC-1 = test system: ABC-1
Outline: as §1

EMC-BAC-2 = test system: EMC-BAC-2
Outline: as §1

NCI-H838 = test system: NCI-H838
Outline: as §1

NCI-H2126 = test system: NCI-H2126
Outline: as §1

NCI-H1993 = test system: NCI-H1993
Outline: as §1

SK-LU-1 = test system: SK-LU-1
Outline: as §1

HCC-366 = test system: HCC-366
Outline: as §1

NCI-H358 = test system: NCI-H358
Outline: as §1

NCI-H23 = test system: NCI-H23
Outline: as §1

NCI-H2023 = test system: NCI-H2023
Outline: as §1

NCI-H1944 = test system: NCI-H1944
Outline: as §1

HCC-78 = test system: HCC-78
Outline: as §1

NCI-H1793 = test system: NCI-H1793
Outline: as §1

NCI-H1395 = test system: NCI-H1395
Outline: as §1

NCI-H2228 = test system: NCI-H2228
Outline: as §1

NCI-H2405 = test system: NCI-H2405
Outline: as §1

HCC-15 = test system: HCC-15
Outline: as §1

HARA = test system: HARA
Outline: as §1

LC-2-ad = test system: LC-2-ad
Outline: as §1

Nc1ccn([C@@H]2O[C@H](CO)[C@@H](O)[C@@H]2O)c(=O)n1 [Cytarabine] + O=C(c1cc(Cc2n[nH]c(=O)c3ccccc23)ccc1F)N1CCN(C(=O)C2CC2)CC1 [Olaparib] (partner 8 µM)
relative viability (HOP-62; first compound 0.005 µM): 0.436 | relative viability (HOP-62; first compound 0.01581 µM): 0.338 | relative viability (HOP-62; first compound 0.05 µM): 0.253 | relative viability (HOP-62; first compound 0.1581 µM): 0.13 | relative viability (HOP-62; first compound 0.5 µM): 0.0414 | relative viability (ChaGo-K-1; first compound 0.005 µM): 0.414 | relative viability (ChaGo-K-1; first compound 0.01581 µM): 0.417 | relative viability (ChaGo-K-1; first compound 0.05 µM): 0.32 | relative viability (ChaGo-K-1; first compound 0.1581 µM): 0.238 | relative viability (ChaGo-K-1; first compound 0.5 µM): 0.209 | relative viability (COR-L23; first compound 0.005 µM): 0.305 | relative viability (COR-L23; first compound 0.01581 µM): 0.309 | relative viability (COR-L23; first compound 0.05 µM): 0.275 | relative viability (COR-L23; first compound 0.1581 µM): 0.131 | relative viability (COR-L23; first compound 0.5 µM): 0.124 | relative viability (ABC-1; first compound 0.005 µM): 0.7 | relative viability (ABC-1; first compound 0.01581 µM): 0.756 | relative viability (ABC-1; first compound 0.05 µM): 0.991 | relative viability (ABC-1; first compound 0.1581 µM): 0.672 | relative viability (ABC-1; first compound 0.5 µM): 0.61 | relative viability (EMC-BAC-2; first compound 0.005 µM): 0.53 | relative viability (EMC-BAC-2; first compound 0.01581 µM): 0.449 | relative viability (EMC-BAC-2; first compound 0.05 µM): 0.369 | relative viability (EMC-BAC-2; first compound 0.1581 µM): 0.287 | relative viability (EMC-BAC-2; first compound 0.5 µM): 0.27 | relative viability (NCI-H838; first compound 0.005 µM): 0.633 | relative viability (NCI-H838; first compound 0.01581 µM): 0.655 | relative viability (NCI-H838; first compound 0.05 µM): 0.643 | relative viability (NCI-H838; first compound 0.1581 µM): 0.278 | relative viability (NCI-H838; first compound 0.5 µM): 0.197 | relative viability (NCI-H2126; first compound 0.005 µM): 0.923 | relative viability (NCI-H2126; first compound 0.01581 µM): 0.907 | relative viability (NCI-H2126; first compound 0.05 µM): 0.673 | relative viability (NCI-H2126; first compound 0.1581 µM): 0.534 | relative viability (NCI-H2126; first compound 0.5 µM): 0.515 | relative viability (NCI-H1993; first compound 0.005 µM): 1.05 | relative viability (NCI-H1993; first compound 0.01581 µM): 0.933 | relative viability (NCI-H1993; first compound 0.05 µM): 0.998 | relative viability (NCI-H1993; first compound 0.1581 µM): 0.727 | relative viability (NCI-H1993; first compound 0.5 µM): 0.459 | relative viability (SK-LU-1; first compound 0.005 µM): 0.472 | relative viability (SK-LU-1; first compound 0.01581 µM): 0.392 | relative viability (SK-LU-1; first compound 0.05 µM): 0.32 | relative viability (SK-LU-1; first compound 0.1581 µM): 0.284 | relative viability (SK-LU-1; first compound 0.5 µM): 0.235 | relative viability (HCC-366; first compound 0.005 µM): 0.316 | relative viability (HCC-366; first compound 0.01581 µM): 0.362 | relative viability (HCC-366; first compound 0.05 µM): 0.32 | relative viability (HCC-366; first compound 0.1581 µM): 0.136 | relative viability (HCC-366; first compound 0.5 µM): 0.0939 | relative viability (NCI-H358; first compound 0.005 µM): 0.443 | relative viability (NCI-H358; first compound 0.01581 µM): 0.491 | relative viability (NCI-H358; first compound 0.05 µM): 0.379 | relative viability (NCI-H358; first compound 0.1581 µM): 0.145 | relative viability (NCI-H358; first compound 0.5 µM): 0.115 | relative viability (NCI-H23; first compound 0.005 µM): 0.387 | relative viability (NCI-H23; first compound 0.01581 µM): 0.244 | relative viability (NCI-H23; first compound 0.05 µM): 0.227 | relative viability (NCI-H23; first compound 0.1581 µM): 0.121 | relative viability (NCI-H23; first compound 0.5 µM): 0.148 | relative viability (NCI-H2023; first compound 0.005 µM): 0.382 | relative viability (NCI-H2023; first compound 0.01581 µM): 0.276 | relative viability (NCI-H2023; first compound 0.05 µM): 0.236 | relative viability (NCI-H2023; first compound 0.1581 µM): 0.0812 | relative viability (NCI-H2023; first compound 0.5 µM): 0.0898 | relative viability (NCI-H1944; first compound 0.005 µM): 0.438 | relative viability (NCI-H1944; first compound 0.01581 µM): 0.33 | relative viability (NCI-H1944; first compound 0.05 µM): 0.322 | relative viability (NCI-H1944; first compound 0.1581 µM): 0.204 | relative viability (NCI-H1944; first compound 0.5 µM): 0.156 | relative viability (HCC-78; first compound 0.005 µM): 0.906 | relative viability (HCC-78; first compound 0.01581 µM): 0.849 | relative viability (HCC-78; first compound 0.05 µM): 0.583 | relative viability (HCC-78; first compound 0.1581 µM): 0.419 | relative viability (HCC-78; first compound 0.5 µM): 0.278 | relative viability (NCI-H1793; first compound 0.005 µM): 0.989 | relative viability (NCI-H1793; first compound 0.01581 µM): 0.847 | relative viability (NCI-H1793; first compound 0.05 µM): 0.887 | relative viability (NCI-H1793; first compound 0.1581 µM): 0.359 | relative viability (NCI-H1793; first compound 0.5 µM): 0.244 | relative viability (NCI-H1395; first compound 0.005 µM): 0.463 | relative viability (NCI-H1395; first compound 0.01581 µM): 0.432 | relative viability (NCI-H1395; first compound 0.05 µM): 0.396 | relative viability (NCI-H1395; first compound 0.1581 µM): 0.41 | relative viability (NCI-H1395; first compound 0.5 µM): 0.335 | relative viability (NCI-H2228; first compound 0.005 µM): 0.379 | relative viability (NCI-H2228; first compound 0.01581 µM): 0.203 | relative viability (NCI-H2228; first compound 0.05 µM): 0.19 | relative viability (NCI-H2228; first compound 0.1581 µM): 0.13 | relative viability (NCI-H2228; first compound 0.5 µM): 0.129 | relative viability (NCI-H2405; first compound 0.005 µM): 0.737 | relative viability (NCI-H2405; first compound 0.01581 µM): 0.605 | relative viability (NCI-H2405; first compound 0.05 µM): 0.509 | relative viability (NCI-H2405; first compound 0.1581 µM): 0.396 | relative viability (NCI-H2405; first compound 0.5 µM): 0.336 | relative viability (HCC-15; first compound 0.005 µM): 0.706 | relative viability (HCC-15; first compound 0.01581 µM): 0.655 | relative viability (HCC-15; first compound 0.05 µM): 0.841 | relative viability (HCC-15; first compound 0.1581 µM): 0.649 | relative viability (HCC-15; first compound 0.5 µM): 0.539 | relative viability (HARA; first compound 0.005 µM): 0.928 | relative viability (HARA; first compound 0.01581 µM): 0.413 | relative viability (HARA; first compound 0.05 µM): 0.487 | relative viability (HARA; first compound 0.1581 µM): 0.179 | relative viability (HARA; first compound 0.5 µM): 0.162 | relative viability (LC-2-ad; first compound 0.005 µM): 0.697 | relative viability (LC-2-ad; first compound 0.01581 µM): 0.617 | relative viability (LC-2-ad; first compound 0.05 µM): 0.65 | relative viability (LC-2-ad; first compound 0.1581 µM): 0.58 | relative viability (LC-2-ad; first compound 0.5 µM): 0.474
